Results reported in ChEMBL document CHEMBL3608289, “Miltirone Is a Dual Inhibitor of P-Glycoprotein and Cell Growth in Doxorubicin-Resistant HepG2 Cells” (J Nat Prod, 2015).
pEC50: −log10 of the molar value. The source made the active and inactive calls. No cut-off for these calls is given here.

Columns and labels:
[1] = molecular target: T1, MAP kinase p38 (Homo sapiens) (UniProt O15264+Q15759+Q16539+P53778); assay: Inhibition of p38 MAPK phosphorylation in human doxorubicin-resistant HepG2 cells expressing p-gp at 1.56 to 25 uM by Western blot analysis in presence of NAC; format: cell-based
HepG2 [2] = assay: Induction of apoptosis in human doxorubicin-resistant HepG2 cells expressing p-gp assessed as activation of caspase-3/8/9 at 12.5 after 24 hrs by Western blotting in presence of Z-IETD-FMK; format: functional, cell-based
[3] = molecular target: T2, Mitogen-activated protein kinase; ERK1/ERK2 (Homo sapiens) (UniProt P27361+P28482); assay: Inhibition of ERK1/2 phosphorylation in human HepG2 cells at 1.56 to 25 uM by Western blot analysis; format: cell-based
T2 sequence (P27361 whole entry, looked up): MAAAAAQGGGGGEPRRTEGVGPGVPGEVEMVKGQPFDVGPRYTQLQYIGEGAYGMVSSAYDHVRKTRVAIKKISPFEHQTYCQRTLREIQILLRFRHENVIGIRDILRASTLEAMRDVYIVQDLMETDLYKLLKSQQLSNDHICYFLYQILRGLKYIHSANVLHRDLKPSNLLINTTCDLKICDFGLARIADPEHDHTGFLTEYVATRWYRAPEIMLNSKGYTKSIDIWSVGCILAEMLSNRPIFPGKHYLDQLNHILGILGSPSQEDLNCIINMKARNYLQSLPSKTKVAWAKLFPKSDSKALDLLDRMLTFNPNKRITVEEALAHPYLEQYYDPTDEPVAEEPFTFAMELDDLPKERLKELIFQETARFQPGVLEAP
T2 sequence (P28482 whole entry, looked up): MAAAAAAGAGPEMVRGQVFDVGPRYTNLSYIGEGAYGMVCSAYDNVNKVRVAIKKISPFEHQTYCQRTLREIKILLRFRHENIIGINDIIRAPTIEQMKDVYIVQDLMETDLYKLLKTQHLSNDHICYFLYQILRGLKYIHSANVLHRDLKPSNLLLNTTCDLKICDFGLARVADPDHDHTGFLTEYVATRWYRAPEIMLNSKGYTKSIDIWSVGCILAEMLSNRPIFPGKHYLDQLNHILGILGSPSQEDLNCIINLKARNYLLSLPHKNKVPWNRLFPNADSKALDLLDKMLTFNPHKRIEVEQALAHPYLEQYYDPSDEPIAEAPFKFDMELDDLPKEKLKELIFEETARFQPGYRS

HepG2 [4] = assay: Induction of apoptosis in human HepG2 cells assessed as activation of caspase-3/8/9 at 12.5 after 24 hrs by Western blotting in presence of Z-VAD-FMK; format: functional, cell-based
[5] = molecular target: T2, Mitogen-activated protein kinase; ERK1/ERK2 (Homo sapiens); assay: Inhibition of ERK1/2 phosphorylation in human doxorubicin-resistant HepG2 cells expressing p-gp at 1.56 to 25 uM by Western blot analysis; format: cell-based
HepG2 [6] = assay: Competitive inhibition of p-glycoprotein in human doxorubicin-resistant HepG2 cells assessed as reduction of doxorubicin efflux after 1 hr by primary Dixon plot analysis; format: cell-based
HepG2 [7] = assay: Induction of necrosis in human doxorubicin-resistant HepG2 cells expressing p-gp assessed as LDH leakage at 25 uM after 24 hrs; format: functional, cell-based
[8] = molecular target: T1, MAP kinase p38 (Homo sapiens); assay: Inhibition of p38 MAPK phosphorylation in human HepG2 cells at 1.56 to 25 uM by Western blot analysis in presence of NAC; format: cell-based
[9] = molecular target: T1, MAP kinase p38 (Homo sapiens); assay: Inhibition of p38 MAPK phosphorylation in human HepG2 cells at 1.56 to 25 uM by Western blot analysis in presence of SB203580; format: cell-based
HepG2 [10] = assay: Induction of apoptosis in human HepG2 cells assessed as activation of caspase-3/8/9 at 12.5 after 24 hrs by Western blotting in presence of trolox; format: functional, cell-based
HepG2 [11] = assay: Induction of oxidative stress in human doxorubicin-resistant HepG2 cells expressing p-gp assessed as decrease of GSH level per gram of protein at 25 uM after 24 hrs using DTNB by enzymatic kinetic method relative to control; format: functional
[12] = Cytotoxicity against human Hep3B cells after 24 hrs by MTT assay in presence of doxorubicin; format: functional, cell-based, Hep 3B2
HepG2 [13] = assay: Effect on nonphosphorylated ERK1/ERK2 level in human HepG2 cells at 25 uM by Western blot analysis; format: ADME, cell-based; details: hepg2, 25 µM
HepG2 [14] = assay: Cytotoxicity against human HepG2 cells after 24 hrs by MTT assay; format: functional, cell-based; details: HepG2, 24 h
HepG2 [15] = assay: Induction of oxidative stress in human doxorubicin-resistant HepG2 cells expressing p-gp assessed as decrease of GSSG level per gram of protein at 25 uM after 24 hrs using DTNB by enzymatic kinetic method relative to control; format: functional, cell-based
[16] = molecular target: T1, MAP kinase p38 (Homo sapiens); assay: Inhibition of p38 MAPK phosphorylation in human HepG2 cells at 1.56 to 25 uM by Western blot analysis; format: cell-based
HepG2 [17] = assay: Induction of ROS generation in human HepG2 cells at 25 uM after 15 to 30 mins using H2DCFH dye by confocal microscopy in presence of PEG-SOD; format: functional, cell-based
HepG2 [18] = assay: Induction of apoptosis in human doxorubicin-resistant HepG2 cells expressing p-gp assessed as activation of caspase-3/8/9 at 12.5 after 24 hrs by Western blotting in presence of Z-LEHD-FMK; format: functional, cell-based
[19] = molecular target: T1, MAP kinase p38 (Homo sapiens); assay: Inhibition of p38 MAPK phosphorylation in human doxorubicin-resistant HepG2 cells expressing p-gp at 1.56 to 25 uM by Western blot analysis in presence of SB203580; format: cell-based
HepG2 [20] = assay: Effect on nonphosphorylated p38 MAPK level in human HepG2 cells at 25 uM by Western blot analysis; format: ADME, cell-based; details: hepg2, 25 µM
[21] = Cytotoxicity against human PLC/PRF/5 cells after 24 hrs by MTT assay in presence of doxorubicin; format: functional, cell-based; details: PLC-PRF-5, 24 h
HepG2 [22] = assay: Induction of apoptosis in human doxorubicin-resistant HepG2 cells expressing p-gp assessed as increase in PARP cleavage after 24 hrs by Western blotting; format: functional, cell-based
HepG2 [23] = assay: Increase of SAPK/JNK phosphorylation in human doxorubicin-resistant HepG2 cells expressing p-gp at 1.56 to 25 uM by Western blot analysis; format: cell-based
HepG2 [24] = assay: Effect on nonphosphorylated ERK1/ERK2 level in human doxorubicin-resistant HepG2 cells expressing p-gp at 25 uM by Western blot analysis; format: ADME, cell-based; details: hepg2, 25 µM
HepG2 [25] = assay: Cytotoxicity against human doxorubicin-resistant HepG2 cells expressing p-gp after 24 hrs by MTT assay; format: functional, cell-based; details: HepG2, 24 h
[26] = molecular target: ATP-dependent translocase ABCB1 (Homo sapiens, UniProt P08183); assay: Inhibition of p-glycoprotein in human doxorubicin-resistant HepG2 cells assessed as reduction of doxorubicin efflux after 1 hr by flow cytometry; format: cell-based; details: hepg2, 1 h
ATP-dependent translocase ABCB1, sequence (P08183 whole entry): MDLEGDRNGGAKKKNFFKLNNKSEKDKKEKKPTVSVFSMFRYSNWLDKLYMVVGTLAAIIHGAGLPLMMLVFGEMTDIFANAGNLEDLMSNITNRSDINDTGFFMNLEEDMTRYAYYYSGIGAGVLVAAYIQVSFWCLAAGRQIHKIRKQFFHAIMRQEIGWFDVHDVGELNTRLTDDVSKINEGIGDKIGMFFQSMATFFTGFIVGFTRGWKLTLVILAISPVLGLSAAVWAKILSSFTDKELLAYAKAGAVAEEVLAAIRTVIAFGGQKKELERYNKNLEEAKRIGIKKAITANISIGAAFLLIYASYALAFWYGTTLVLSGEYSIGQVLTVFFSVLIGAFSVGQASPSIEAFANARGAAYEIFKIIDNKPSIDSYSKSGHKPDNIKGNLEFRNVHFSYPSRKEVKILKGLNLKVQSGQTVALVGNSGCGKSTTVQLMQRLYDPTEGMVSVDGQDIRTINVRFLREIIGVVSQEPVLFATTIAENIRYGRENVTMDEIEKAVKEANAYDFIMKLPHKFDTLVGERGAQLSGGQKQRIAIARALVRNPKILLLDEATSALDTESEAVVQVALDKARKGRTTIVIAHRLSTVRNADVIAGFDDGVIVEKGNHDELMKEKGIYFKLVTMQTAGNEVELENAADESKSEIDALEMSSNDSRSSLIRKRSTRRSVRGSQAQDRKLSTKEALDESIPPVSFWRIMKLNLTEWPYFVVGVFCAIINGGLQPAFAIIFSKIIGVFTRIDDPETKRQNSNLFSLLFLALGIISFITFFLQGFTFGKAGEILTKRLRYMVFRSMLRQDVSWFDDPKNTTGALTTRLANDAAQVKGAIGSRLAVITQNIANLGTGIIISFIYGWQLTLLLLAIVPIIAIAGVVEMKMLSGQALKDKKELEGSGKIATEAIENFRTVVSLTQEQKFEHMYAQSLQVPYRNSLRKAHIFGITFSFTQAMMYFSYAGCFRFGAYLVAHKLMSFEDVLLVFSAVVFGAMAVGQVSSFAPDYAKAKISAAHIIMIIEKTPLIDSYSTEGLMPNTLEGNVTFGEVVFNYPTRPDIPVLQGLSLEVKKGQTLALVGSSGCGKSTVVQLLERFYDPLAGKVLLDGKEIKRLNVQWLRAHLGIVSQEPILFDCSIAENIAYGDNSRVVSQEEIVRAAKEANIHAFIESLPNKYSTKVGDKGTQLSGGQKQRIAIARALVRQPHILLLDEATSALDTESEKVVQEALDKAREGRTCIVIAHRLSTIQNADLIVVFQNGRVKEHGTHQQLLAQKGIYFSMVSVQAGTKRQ

HepG2 [27] = assay: Induction of oxidative stress in human HepG2 cells assessed as decrease of GSSG level per gram of protein at 25 uM after 24 hrs using DTNB by enzymatic kinetic method relative to control; format: functional
[28] = molecular target: T2, Mitogen-activated protein kinase; ERK1/ERK2 (Homo sapiens); assay: Inhibition of ERK1/2 phosphorylation in human doxorubicin-resistant HepG2 cells expressing p-gp at 1.56 to 25 uM by Western blot analysis in presence of NAC; format: cell-based
HepG2 [29] = assay: Increase of SAPK/JNK phosphorylation in human HepG2 cells at 1.56 to 25 uM by Western blot analysis; format: cell-based
HepG2 [30] = assay: Induction of oxidative stress in human HepG2 cells assessed as decrease of GSH level per gram of protein at 25 uM after 24 hrs using DTNB by enzymatic kinetic method relative to control; format: functional

inhibition [1]: inactive
inhibition [3]: Active
inhibition [5]: Active
inhibition [8]: inactive
inhibition [9]: inactive
inhibition [16]: Active
inhibition [19]: inactive
inhibition (INH) [26]: Active
inhibition [28]: inactive
Compound: CC(C)C1=Cc2ccc3c(c2C(=O)C1=O)CCCC3(C)C [MILTIRONE]
Activity (HepG2 [2]): inactive
Activity (HepG2 [4]): inactive
inhibition (HepG2 [6]): Active
Activity (HepG2 [7]): inactive
Activity (HepG2 [10]): inactive
Activity (HepG2 [11]): 1.2 µmol
pEC50 [12]: 5.18
Activity (HepG2 [13]): Non-toxic
pEC50 (HepG2 [14]): 5.15
Activity (HepG2 [15]): inactive
Activity (HepG2 [17]): inactive
Activity (HepG2 [18]): inactive
Activity (HepG2 [20]): Non-toxic
pEC50 [21]: 4.76
Activity (HepG2 [22]): Active
Activity (HepG2 [23]): Active
Activity (HepG2 [24]): Non-toxic
pEC50 (HepG2 [25]): 4.92
Activity (HepG2 [27]): 3.5 µmol
Activity (HepG2 [29]): Active
Activity (HepG2 [30]): 2.4 µmol
